Results from ChEMBL document CHEMBL3301361, “Experimental in vitro DMPK and physicochemical data on a set of publicly disclosed compounds”.

Assay: physchem
Settings: octan-1-ol/water, pH 7.4

Structure (SMILES) | logD
COc1cc(O)c2c(c1)/C=C/C[C@H](O)[C@H](O)C(=O)/C=C\C[C@H](C)OC2=O | 1.64
N#Cc1c(-c2ccccc2)nc(SCCc2ccccc2)[nH]c1=O | 1.71
CC(C)[C@@H](CN1CCCCC1)N(C)C(=O)Cc1ccc(Cl)c(Cl)c1 | 2.87
COc1ccc(C(CN2CCCC2)N(C)C(=O)Cc2ccc(Cl)c(Cl)c2)c(OC)c1 (centres undefined) | 3.07
C[C@H]1NC(C)(C)CO[C@]1(O)c1cccc(Cl)c1 | 1.69
O=C(N[C@@H]1CN2CCC1CC2)c1ccc(-c2ccccc2)s1 | 1.77
CC(O)C(C)OC(=O)[C@@H]1CC2c3cccc4c3c(cn4C(C)C)CC2N(C)C1 (some centres undefined) | 2.8
CN1CC=C(c2cccc(O)c2)CC1 | 0.53
NC(=O)c1cccc(O[C@H]2C[C@H]3CC[C@@H](C2)N3CC2CCCCC2)c1 | 1.55
CN(C)C(=O)N[C@H]1CC[C@H](CN2[C@@H]3CC[C@H]2C[C@@H](Oc2cccc(C(N)=O)c2)C3)CC1 | -0.07
CN(C)C(=O)N[C@H]1CC[C@H](CCN2[C@@H]3CC[C@H]2C[C@@H](Oc2cccc(C(N)=O)c2)C3)CC1 | 0.12
CN(C)C(=O)N[C@H]1CC[C@@H](CCN2[C@@H]3CC[C@H]2C[C@@H](Oc2cccc(C(N)=O)c2)C3)CC1 | 0.22
NC(=O)c1cccc(O[C@H]2C[C@H]3CC[C@@H](C2)N3Cc2ccccc2)c1 | 1.61
NC(=O)c1cccc(O[C@@H]2C[C@H]3CC[C@@H](C2)N3Cc2ccccc2)c1 | 1.76
NC(=O)c1cccc(C[C@H]2C[C@H]3CC[C@@H](C2)N3Cc2ccccc2)c1 | 1.19
NC(=O)c1cccc(C[C@@H]2C[C@H]3CC[C@@H](C2)N3Cc2ccccc2)c1 | 1.11
NC(=O)c1cccc(N[C@H]2C[C@H]3CC[C@@H](C2)N3Cc2ccccc2)c1 | 1.01
NC(=O)c1cccc(O[C@H]2C[C@H]3CC[C@@H](C2)N3Cc2ccccc2)n1 | 1.71
NC(=O)c1cncc(O[C@H]2C[C@H]3CC[C@@H](C2)N3Cc2ccccc2)n1 | 1.1
Cc1c(O[C@H]2C[C@H]3CC[C@@H](C2)N3Cc2ccccc2)cccc1C(N)=O | 1.6
NC(=O)c1ccc(O[C@H]2C[C@H]3CC[C@@H](C2)N3Cc2ccccc2)nc1 | 1.25
Oc1ccnc2ccccc12 | 0.8

Structure (SMILES) | logD
CCN(CC)C(=O)c1ccc(C(c2cccc3cccnc23)N2CCNCC2)cc1 (centres undefined) | 0.7
Cc1ccnc(NCc2ccc(Cl)cc2)c1 | 3.6
COc1ccccc1Cn1c(C)nc2ccccc21 | 3.47
Nc1ccc2nc(-c3ccc(O)cc3)sc2c1 | 3.1
O=c1c2ccccc2nc2n1CCS2(=O)=O | 0.8
COc1cccc(COCC(O)CN2CCC(C(N)=O)CC2)c1 (centres undefined) | -0.5
Cc1cc(O)nc(-n2nc(C)c(Oc3ccccc3O)c2C)n1 | 1.4
CC(=O)Nc1ccc(S(=O)(=O)Nc2ccc(Cc3ccncc3)cc2)cc1 | 2.8
Cc1cc(C)n(-c2cccc(Cl)c2C#N)n1 | 3
C1CCC(NC2CCCCC2)CC1 | -0.38
CCCCCc1ccc(-c2nnc(N)s2)cc1 | 4.13
COc1ccc(-n2cnc3cc(NS(=O)(=O)c4ccccc4)ccc32)cc1 | 3.7
Nc1ccc(C2(c3ccc(N)cc3)CCCCC2)cc1 | 3.2
CC1(C)CC(=O)c2c(nc3ccccc3c2N)C1 | 3
CCOC(=O)c1c(C)n(Cc2ccco2)c2ccc(O)cc12 | 3.5
Nc1ncnc2oc(-c3ccoc3)c(-c3ccco3)c12 | 3.1
Cc1ccc(CN2C(=O)CCSc3ccc(Cl)cc32)cc1 | 3.7
CC(C)(C)c1ccc(C2=NC(=O)C(CC(=O)O)S2)cc1 (centres undefined) | -0.1
c1ccc(CCNCc2ccccc2)cc1 | 1.65
CC(C)[C@@H]1N=C(c2ccccc2)c2ccccc2NC1=O | 3.05
COc1ccc(C=C2SC(=O)NC2=O)cc1OC | 1.17
Cn1c(=O)n(Cc2ccc(Br)cc2)c2ccccc21 | 2.81

Structure (SMILES) | logD
Cc1ccc(-c2nnc(O)c3ccccc23)c(C)c1 | 3.41
Cn1nnc(-c2ccc(-c3ccc(N4C[C@H](COc5ccon5)OC4=O)cc3F)cn2)n1 | 1.24
N#Cc1cccc(-c2ccc(C3(CNC(=O)Nc4cc(Cl)cc(Cl)c4)CCN(CC4CC4)CC3)cc2)c1 | 3.37
O=C(O)CCC(=O)N1CCC(c2nc(-c3cccs3)no2)CC1 | -1.27
COc1cc(F)ccc1-c1cncc(C2CCCN2)c1 (centres undefined) | 1.1
CCCNC(=O)c1nnc2c(-c3cnc(OC)nc3OC)cccc2c1N | 3.26
CCCNC(=O)c1nnc2c(-c3cnccc3OC)cccc2c1N | 2.83
CCCNC(=O)c1nnc2c(-c3cc(C)ccc3OC)cccc2c1N | 3.99
Cc1nc(-c2ccc(CN3CCC(n4c(=O)[nH]c5ccccc54)CC3)cc2)c(-c2ccccc2)[nH]c1=O | 3.8
O=C(NCc1ccncn1)c1ccc(Oc2ccc(C#C[C@]3(O)CN4CCC3CC4)cc2)cc1 | 1.78
O=C(NCc1ccncn1)c1ccc(Oc2ccc(C#C[C@@]3(O)CN4CCC3CC4)cc2)cc1 | 1.77
O=C(O)c1cn(C2CC2)c2cc(=[N+]3CCN(C(=O)CC[N+](=O)[O-])CC3)c(F)cc-2c1[O-] | 0.22
Oc1ccc(Br)c2ccccc12 | 4.3
CC(O)c1ccc2c(c1)N(CCN1CCC(NCc3ccc4c(n3)NC(=O)CO4)CC1)C(=O)CO2 (centres undefined) | 0.25
O=C1COc2ccc(CNC3CCN(CCN4C(=O)COc5ccc(O)cc54)CC3)nc2N1 | 0.52
COC(=O)c1ccc2c(c1)N(CCN1CCC(NCc3ccc4c(n3)NC(=O)CO4)CC1)C(=O)CO2 | 0.83
CC(=O)c1ccc2c(c1)N(CCN1CCC(NCc3ccc4c(n3)NC(=O)CO4)CC1)C(=O)CO2 | 0.37
O=C(Cc1cccc2ccccc12)Nc1ccccc1 | 3.9
O=C(Cc1c(C(=O)O)[nH]c2ccccc12)Nc1cccc(C(F)(F)F)c1 | 1.33
Cc1ccc(-c2cc(C(=O)N3CCOCC3)c3cc(C)ccc3n2)cc1 | 3.6
CC(C)C1NCCc2c1sc1ccccc21 (centres undefined) | 2.8
CCN(CC)C(=O)c1ccc([C@H](c2cccc(NC(=O)C3CC3)c2)N2CCN(Cc3ccc(F)cc3)CC2)cc1 | 3.99

Structure (SMILES) | logD
CN(CCO)C(=O)c1ccc([C@H](c2cccc(NC(=O)C3CC3)c2)N2CCN(Cc3ccc(F)cc3)CC2)cc1 | 3.38
O=C(Nc1cccc([C@@H](c2ccc(C(=O)N3CCC3)cc2)N2CCN(Cc3ccc(F)cc3)CC2)c1)C1CC1 | 3.58
CCN(C)C(=O)c1ccc([C@H](c2cccc(NC(=O)C3CCC3)c2)N2CCN(Cc3cccnc3)CC2)cc1 | 3.27
CCOC(=O)Nc1cccc([C@@H](c2ccc(C(=O)N3CCC3)cc2)N2CCN(Cc3cccnc3)CC2)c1 | 3.02
CCN(C)C(=O)c1ccc(C(=C2CCN(Cc3ccc(F)cc3)CC2)c2ccccc2NC(C)=O)cc1 | 2.79
CN1CCC[C@H]1c1ccccn1 | 0.44
c1cncc(-c2ccc(-c3nnc(C4CN5CCC4CC5)o3)o2)c1 (centres undefined) | 1.2
C[C@@H]1CN(C(=O)OC(C)(C)C)CCN1c1ncc(OCc2ccc(S(C)(=O)=O)cc2)cn1 | 3.6
CC(C)(C)OC(=O)N1CCN(c2ncc(OCc3ccncc3C#N)cn2)CC1 | 2.81
c1ccc(C2CCNCC2)cc1 | 0.54
Nc1nc(Nc2ccc3nc(-c4ccc(F)cc4)cc(N)c3c2)cc(-c2ccc(C(F)(F)F)cc2)n1 | 1.54
CN1Cc2ccccc2C(c2ccc(Cl)cc2)C1 (centres undefined) | 3.64
O=C(NCC1CCOCC1)c1nc(OS(=O)(=O)CCC(F)(F)F)ccc1NC(=O)c1ccc(Cn2ccnn2)c2ccccc12 | 4.2
O=C(NCC1CCOCC1)c1ncccc1NC(=O)c1cccc2ccccc12 | 4.4
CN1CC=CCC(c2ccc(Cl)c(Cl)c2)C1 (centres undefined) | 3.32
CCOc1ccc(-n2c(CC)nc3ccccc3c2=O)cc1 | 3.27
CCC(CO)NCCNC(CC)CO (centres undefined) | -1.42
CCN(CC)C(=O)c1ccc(C(=C2CCNCC2)c2ccccc2OC)cc1 | 1
c1ccc2c(OCC3=NCCN3)cccc2c1 | 0.68
C[C@@H]1C2CCCC1(c1cccc(O)c1)CCN2C (some centres undefined) | 0.52
Oc1cc(Cl)cc(Cl)c1 | 3.58
c1ccc(-c2ccc(C3CN4CCC3CC4)cc2)cc1 (centres undefined) | 1.76

Structure (SMILES) | logD
CN(C(=O)Cc1ccc(Cl)c(Cl)c1)C(CN1CCCC1)c1ccccc1 (centres undefined) | 3.38
COC(=O)C1C(OC(=O)c2ccccc2)CC2CCC1N2C (centres undefined) | 1.06
COc1cc(C(=O)N2CC[C@](CCN3CCC(C(N)=O)(c4ccccc4)CC3)(c3ccc(Cl)c(Cl)c3)C2)cc(OC)c1OC | 3.23
O=C(O)c1cc2ccccc2n1Cc1ccccc1 | 0.78
COc1ccc2c(c1)cc(C(=O)O)n2Cc1ccc(Cl)c(Cl)c1 | 1.66
NC(Cc1ccccc1)c1ccccc1 (centres undefined) | 1.32
O=C1O[C@]2(CN3CCC2CC3)CN1c1cccs1 | 0.9
O=C(N[C@H]1CN2CCC1CC2)c1ccc(-c2ccccn2)s1 | 0.7
Cc1ccc(NC(=O)c2ccnc(N3CCOCC3)c2)cc1Nc1ccnc(N(C)C2CCN(C)CC2)n1 | 1.8
CC12NC(Cc3ccccc31)c1ccccc12 (centres undefined) | 1.7
CNC1=Nc2ncccc2C(c2cc[nH]c2)=NC1c1cccs1 (centres undefined) | 1.73
CCCCCCCCCC(=O)N[C@@H](Cc1c[nH]c2ccccc12)C(=O)N[C@H](CC(N)=O)C(=O)N[C@@H](CC(=O)O)C(=O)N[C@@H]1C(=O)NCC(=O)N[C@@H](CCCN)C(=O)N[C@@H](CC(=O)O)C(=O)N[C@H](C)C(=O)N[C@@H](CC(=O)O)C(=O)NCC(=O)N[C@H](CO)C(=O)N[C@@H]([C@H](C)CC(=O)O)C(=O)N[C@@H](CC(=O)c2ccccc2N)C(=O)O[C@@H]1C | -0.94
CNC1=Nc2ncccc2C(c2ncco2)=NC1c1cccs1 (centres undefined) | 1.14
CCNC1=Nc2ccccc2C(c2ccccc2)=NC1c1cccs1 (centres undefined) | 3.98
CC(=O)N(C)c1ccccc1 | 1.1
CNC1=Nc2ncccc2C(c2ccco2)=NC1c1ccns1 (centres undefined) | 1.44
Cc1ccc(OC(=O)N2CCN3CCC2CC3)cc1 | 1.02
COc1ccc2c3c1OC1C(O)C=CC4C(C2)N(C)CCC341 (centres undefined) | 0.8
COc1cc2c(c(OC)c1OC)-c1ccc(OC)c(=O)cc1C(NC(C)=O)CC2 (centres undefined) | 1.12
Cc1cc(N)c2cc(NC(=O)CC(=O)Nc3ccc4nc(C)cc(N)c4c3)ccc2n1 | 1.35
CN(C)CC/C=C1\c2ccccc2Sc2ccc(Cl)cc21 | 3.42
